In patent EP3594336A1, “TREATMENT OF DOWN SYNDROME” (Université de Strasbourg, priority 2018, dated 2020):

Experiments:
[1] = system: yeast cells overexpressing Cys4; test: Drug screening in yeast: suppression of methionine auxotrophy (halo of restored growth around filter); assay type: cell-based, Saccharomyces cerevisiae; conditions: same plate assay; high concentrations = close to the filter
Protocol: As an example, for the drug screening, yeast cells transformed with p424-GPD and p426-GPD plasmids containing yeast CBS (CYS4) coding sequence were grown in uracil- and tryptophan-free minimal liquid medium (SD-Ura/Trp) overnight at 29°C. The following day, cells were diluted to OD600∼0.2 in fresh medium and grown for 4 hours to reach exponential phase. Then three hundred and fifty microliters of exponentially growing yeast cells overexpressing CYS4, adjusted to an OD600 of 0.5, were spread homogeneously with sterile glass beads (a mix of ∼1.5 and 3 mm diameter) on a square Petri dish (12 cm × 12cm) containing uracil-, tryptophan- and methionine-free minimal agar-based solid medium (SD-UrarTrp/Met). In addition, to get a degree of methionine auxotrophy sufficient to allow an efficient screening, the screening medium was supplemented with serine (2% (w/v)), which is one of CYS4/CBS substrates. Sterile filters (Thermo Fisher similar to those used for antibiograms) were placed on the agar surface, and 2 µl of individual compound from the various chemical libraries were applied to each filter. […]
According to the present invention, it was decided to create a yeast model in which the phenotypical consequences of CBS overexpression may be easily and conveniently monitored in order to get a potential in cellulo high throughput drug screening procedure. […]

DYRK1A = conditions: treatment with EGCG, as reported previously; cited from earlier work

Row | SMILES | toxicity on CYS4-overexpressing cells [1] | cognitive aspects found altered in people with DS (DYRK1A)
1 | CCN(CC)C(=S)SSC(=S)N(CC)CC [DSF, Disulfiram] | toxic at high concentrations | 
2 | O=C(O[C@@H]1Cc2c(O)cc(O)cc2O[C@@H]1c1cc(O)c(O)c(O)c1)c1cc(O)c(O)c(O)c1 [epigallocatechin-3-gallate] |  | can restore some cognitive aspects found altered in people with DS but the gain was limited
